Active and inactive are the calls of the source. The rule behind the calls is not given here.
How the values were obtained:
Aspergillus niger [1] = assay: Antifungal activity against Aspergillus niger after 7 days by serial dilution technique; format: functional
Bacillus subtilis [2] = assay: Bactericidal activity against Bacillus subtilis; format: functional, organism-based
Staphylococcus aureus [3] = assay: Antibacterial activity against Staphylococcus aureus after 24 hr by serial dilution technique; format: functional
Candida albicans [4] = assay: Antifungal activity against Candida albicans after 2 days by serial dilution technique; format: functional
Escherichia coli [5] = assay: Bactericidal activity against Escherichia coli; format: functional, organism-based
Candida albicans [6] = assay: Fungicidal activity against Candida albicans; format: functional, organism-based
Staphylococcus aureus [7] = assay: Bactericidal activity against Staphylococcus aureus; format: functional, organism-based
Escherichia coli [8] = assay: Antibacterial activity against Escherichia coli after 24 hr by serial dilution technique; format: functional
Bacillus subtilis [9] = assay: Antibacterial activity against Bacillus subtilis after 24 hr by serial dilution technique; format: functional
Aspergillus niger [10] = assay: Fungicidal activity against Aspergillus niger after 7 days by serial dilution technique; format: functional, organism-based

CCOC(=O)c1ccccc1N [ETHYL ANTHRANILATE]
-logMIC (Aspergillus niger [1]): 1.72
Activity (Bacillus subtilis [2]): Active
-logMIC (Staphylococcus aureus [3]): 1.12
-logMIC (Candida albicans [4]): 1.12
Activity (Escherichia coli [5]): Active
Activity (Candida albicans [6]): Active
Activity (Staphylococcus aureus [7]): Active
-logMIC (Escherichia coli [8]): 1.72
-logMIC (Bacillus subtilis [9]): 1.91
Activity (Aspergillus niger [10]): Active

From ChEMBL document CHEMBL3046853, “Synthesis, antimicrobial evaluation, ot-QSAR and mt-QSAR studies of 2-amino benzoic acid derivatives” (2012)
